Molecules are shown by their SMILES.

The target of the assay is T1, recombinant human cathepsin E (Homo sapiens, UniProt P14091).
T1 construct: purchased R&D Systems
T1 sequence (P14091 54-396): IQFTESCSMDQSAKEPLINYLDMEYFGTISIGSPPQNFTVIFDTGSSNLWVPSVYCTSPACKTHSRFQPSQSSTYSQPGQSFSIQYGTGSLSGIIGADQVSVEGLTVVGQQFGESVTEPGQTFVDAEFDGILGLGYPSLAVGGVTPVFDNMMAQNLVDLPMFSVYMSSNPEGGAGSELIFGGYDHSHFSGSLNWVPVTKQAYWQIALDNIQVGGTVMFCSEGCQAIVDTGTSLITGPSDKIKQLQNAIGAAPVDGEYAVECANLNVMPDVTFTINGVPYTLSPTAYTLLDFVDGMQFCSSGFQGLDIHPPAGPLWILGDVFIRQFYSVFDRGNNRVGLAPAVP
Briefly: Cathepsin E fluorescent substrate kinetic assay. The following applies: pH 4.5, substrate MR121-[…]. The assay is classed as biochemical. The text has this: Cathepsin D and Cathepsin E Fluorescent Substrate Kinetic Assays
The MR121 fluorescence assays described below are based on the fact that MR121 forms a non-fluorescent ground state complex with tryptophan. In solution this formation occurs at millimolar concentrations of tryptophan. The mechanism can be used to design a generic biochemical assay for proteases. A substrate peptide is labeled at the N-terminus with tryptophan and at the C-terminus with the fluorophore MR121 (for cathepsin D the 10 amino acid peptide […]-MR121 was used; for cathepsin E, MR121-[…] was used). In absence of protease activity, the substrates remain intact and the MR121 fluorescence is reduced by the high local Trp-concentration. If the substrates are cleaved by the enzymes the MR121 fluorescence is recovered.
The fluorescent substrate cathepsin D and cathepsin E kinetic assays were performed at room temperature in 384-well microtiter plates (black with clear flat bottom, non binding surface plates from Corning) in a final volume of 51 μl. The test compounds were serially diluted in DMSO (15 concentrations, ⅓ dilution steps) and 1 μl of diluted compounds were mixed for 10 min with 40 μl of cathepsin D (from human liver, Calbiochem) diluted in assay buffer (100 mM sodium acetate, 0.05% BSA, pH 5.5; final concentration: 200 nM) or with 40 μl of recombinant human cathepsin E (R&D Systems) diluted in assay buffer (100 mM sodium acetate, 0.05% BSA, pH 4.5; final concentration: 0.01 nM). After addition of 10 μl of the cathepsin D substrate […]-MR121 diluted in cathepsin D assay buffer (final concentration: 300 nM) or […] cathepsin E substrate MR121-[…] diluted in cathepsin E assay buffer (final concentration: 300 nM), the plates were strongly shaken for 2 minutes. The enzymatic reaction was followed in a plate: vision reader (Perkin Elmer) (excitation wavelength: 630 nm; emission: 695 nm) for at least 30 minutes in a kinetic measurement detecting an increase of MR121 fluorescence during the reaction time. The slope in the linear range of the kinetic was calculated and the IC50 of the test compounds were determined using a four parameter equation for curve fitting.
Turning to `N#Cc1ccc(C(=O)Nc2ccc(F)c([C@@]3(CF)N=C(N)O[C@@H]4CC(F)(F)C[C@@H]43)c2)nc1` [Example 3, 5-Cyano-pyridine-2-carboxylic acid [(S)-3-((1R,2R)-2-amino-6,6-difluoro-4-fluoromethyl-4,4a,5,6,7,7a-hexahydro-cyclopenta[e][1,3]oxazin-4-yl)-4-fluoro-phenyl]-amide], the IC50 is over 200 µM.

On to `NC1=N[C@](CF)(c2cc(NC(=O)c3ccc(F)cn3)ccc2F)[C@H]2CC(F)(F)C[C@H]2O1` [Example 7, 5-Fluoro-pyridine-2-carboxylic acid [(S)-3-((1R,2R)-2-amino-6,6-difluoro-4-fluoromethyl-4,4a,5,6,7,7a-hexahydro-cyclopenta[e][1,3]oxazin-4-yl)-4-fluoro-phenyl]-amide], for which the IC50 is 149 µM.

In the case of `NC1=N[C@](CF)(c2cc(NC(=O)c3cnc(C(F)F)cn3)ccc2F)[C@H]2CC(F)(F)C[C@H]2O1` [Example 24, 5-Difluoromethyl-pyrazine-2-carboxylic acid [(S)-3-((1R,2R)-2-amino-6,6-difluoro-4-fluoromethyl-4,4a,5,6,7,7a-hexahydro-cyclopenta[e][1,3]oxazin-4-yl)-4-fluoro-phenyl]-amide], the half-maximal inhibitory concentration (IC50) was over 200 µM.

On to `N#Cc1ccc(C(=O)Nc2ccc(F)c([C@@]3(C(F)F)N=C(N)O[C@@H]4CC(F)(F)C[C@@H]43)c2)nc1` [Example 36, 5-Cyano-pyridine-2-carboxylic acid [(S)-3-((1R,2R)-2-amino-4-difluoromethyl-6,6-difluoro-4,4a,5,6,7,7a-hexahydro-cyclopenta[e][1,3]oxazin-4-yl)-4-fluoro-phenyl]-amide], for which the IC50 is over 200 µM.

Regarding `COc1cnc(C(=O)Nc2ccc(F)c([C@@]3(C(F)F)N=C(N)O[C@@H]4CC(F)(F)C[C@@H]43)c2)cn1` [Example 42, 5-Methoxy-pyrazine-2-carboxylic acid [(S)-3-((1R,2R)-2-amino-4-difluoromethyl-6,6-difluoro-4,4a,5,6,7,7a-hexahydro-cyclopenta[e][1,3]oxazin-4-yl)-4-fluoro-phenyl]-amide], the IC50 is over 200 µM.

The values are drawn from patent US8476264B2, “N-(3-(2-amino-6,6-difluoro-4,4A,5,6,7,7A-hexahydro-cyclopenta[E][1,3]oxazin-4-yl)-phenylamides as BACE1 inhibitors” (Hoffmann-La Roche Inc., priority 2011, dated 2013).
